According to patent US8303962B2, “Antibacterial and antifungal peptides” (C3 Jian, Inc., priority 2009, dated 2012):
Converted amounts (≈) assume the structure as drawn. Like-named read-outs stand apart in the source and are kept apart here. Each block holds one compound with its values, some of them ahead of it. Peptide text beside a SMILES is read from it.

Key:
B. subtilis = type: cell-based, Bacillus subtilis
Procedure: (§1) In certain embodiments the MIC assays are performed as described herein in the Examples. For each organism, the media and growth conditions utilized is detailed in Table 8.
(§2) In certain embodiments the MIC assays are performed as follows: For each organism, the media and growth conditions utilized is detailed in Table 8.

MRSA = type: cell-based, Methicillin-resistant Staphylococcus aureus
Procedure: as §1, §2

A. baumannii = type: cell-based, Acinetobacter baumannii; details: LB, 30° C., anaerobic
Procedure: as §1, §2

S. pneumoniae = type: cell-based, Streptococcus pneumoniae; details: TSB supplemented with 5% yeast extract, 37° C., 10% CO2
Procedure: as §1, §2

T. rubrum = type: cell-based, Trichophyton rubrum; details: T. rubrum; Potato Dextrose Agar, 25° C., aerobic
Procedure: as §1, §2

A. niger = type: cell-based, Aspergillus niger
Procedure: as §1, §2

P. gingivalis = type: cell-based, Porphyromonas gingivalis; details: Columbia broth, 37° C., anaerobic
Procedure: as §1, §2

S. mutans = type: cell-based, Streptococcus mutans; details: TH supplemented with 1% sucrose, 37° C., anaerobic
Procedure: as §1, §2

S. epidermidis = type: cell-based; details: BHI supplemented with 0.25% glucose, 37° C., aerobic
Procedure: as §1, §2

P. aeruginosa = type: cell-based, Pseudomonas aeruginosa; details: MH, 37° C., aerobic
Procedure: as §1, §2

M. furfur = assay: MIC assay, M. furfur; type: cell-based, Malassezia furfur; details: ATCC medium 1072, 37° C., aerobic
Procedure: as §1, §2

Compound: CC[C@H](C)[C@H](NC(=O)CNC(=O)[C@@H](N)CCSC)C(=O)N[C@H](C(=O)N[C@@H](C)C(=O)NCC(=O)N[C@H](C(=O)N[C@H](C(=O)N[C@@H](CCCCN)C(=O)N[C@@H](Cc1ccccc1)C(=O)N[C@H](C(=O)N[C@@H](CCCCN)C(=O)NCC(=O)N[C@@H](CC(C)C)C(=O)N[C@H](C(=O)N[C@@H](CCC(=O)O)C(=O)N[C@@H](CCCCN)C(=O)N[C@@H](Cc1ccccc1)C(=O)N[C@H](C(=O)NCC(=O)N[C@@H](CCCCN)C(=O)O)[C@@H](C)O)[C@@H](C)CC)[C@@H](C)CC)[C@@H](C)CC)[C@@H](C)CC)[C@@H](C)CC [PF-006]
- MIC (B. subtilis; B. subtilis, BHI, 30° C., aerobic): 25 µM (≈ 56.9 µg/mL)
- MIC (MRSA; MRSA, BHI supplemented with 2% glucose, 37° C., aerobic): 50 µM (≈ 114 µg/mL)
- MIC (A. baumannii): 50 µM (≈ 114 µg/mL)

Compound: CC(C)C[C@H](NC(=O)CNC(=O)[C@@H](N)CC(C)C)C(=O)N[C@H](C(=O)N[C@@H](C)C(=O)NCC(=O)N[C@H](C(=O)N[C@@H](C)C(=O)N[C@@H](Cc1ccc(O)cc1)C(=O)N[C@@H](C)C(=O)N[C@@H](C)C(=O)N[C@@H](CCC(N)=O)C(=O)N1CCC[C@H]1C(=O)N[C@H](C(=O)N[C@@H](CC(N)=O)C(=O)N[C@@H](CCC(N)=O)C(=O)N1CCC[C@H]1C(=O)N[C@H](C(=O)N[C@@H](CC(N)=O)C(=O)N[C@@H](CCC(N)=O)C(=O)N1CCC[C@H]1C(=O)N[C@H](C(=O)N[C@@H](CC(N)=O)C(=O)N[C@@H](CCC(N)=O)C(=O)N1CCC[C@H]1C(=O)N[C@H](C(=O)N[C@@H](CC(N)=O)C(=O)N[C@@H](CCC(N)=O)C(=O)N1CCC[C@H]1C(=O)N[C@H](C(=O)N[C@@H](CC(N)=O)C(=O)N[C@@H](CCC(N)=O)C(=O)N1CCC[C@H]1C(=O)N[C@H](C(=O)N[C@@H](CC(N)=O)C(=O)N[C@@H](CCC(N)=O)C(=O)N1CCC[C@H]1C(=O)N[C@@H](CCCNC(=N)N)C(=O)N[C@@H](Cc1c[nH]c2ccccc12)C(=O)O)[C@@H](C)O)[C@@H](C)O)[C@@H](C)O)[C@@H](C)O)[C@@H](C)O)[C@@H](C)O)C(C)C)[C@@H](C)O [PF-520] (H-LGLTAGVAYAAQPTNQPTNQPTNQPTNQPTNQPTNQPRW-OH; N-terminus and C-terminus assumed)
- MIC (S. pneumoniae): 50 µM (≈ 211 µg/mL)

Compound: CC[C@H](C)[C@H](NC(=O)[C@H](CCCNC(=N)N)NC(=O)[C@@H](NC(=O)[C@H](CCCCN)NC(=O)[C@H](CCCCN)NC(=O)[C@H](CC(C)C)NC(=O)[C@H](CC(C)C)NC(=O)[C@H](CCCCN)NC(=O)[C@H](CCCNC(=N)N)NC(=O)[C@H](Cc1c[nH]cn1)NC(=O)[C@H](CCCCN)NC(=O)[C@H](CCCCN)NC(=O)[C@H](CCCCN)NC(=O)[C@H](C)NC(=O)[C@H](CCSC)NC(=O)[C@H](CCCNC(=N)N)NC(=O)[C@H](CCCCN)NC(=O)[C@H](CCCNC(=N)N)NC(=O)[C@H](CCCNC(=N)N)NC(=O)[C@H](CCCCN)NC(=O)[C@H](CCCCN)NC(=O)[C@@H](NC(=O)[C@@H](NC(=O)[C@H](CO)NC(=O)CN)C(C)C)[C@@H](C)CC)[C@@H](C)O)C(=O)N[C@@H](CCC(N)=O)C(=O)N[C@@H](CCCNC(=N)N)C(=O)N[C@@H](CCCNC(=N)N)C(=O)N[C@@H](CCCNC(=N)N)C(=O)N[C@@H](C)C(=O)NCC(=O)N[C@@H](CCCCN)C(=O)O [PF-527] (H-GSVIKKRRKRMAKKKHRKLLKKTRIQRRRAGK-OH; N-terminus and C-terminus assumed)
- MIC (T. rubrum): 25 µM (≈ 98.5 µg/mL)
- MIC (A. niger; A. niger, Potato Dextrose Agar, 25° C., aerobic): 50 µM (≈ 197 µg/mL)

- MIC (B. subtilis): 25 µM (≈ 49 µg/mL)
- MIC (MRSA): 50 µM (≈ 98 µg/mL)
- MIC (A. niger): 50 µM (≈ 98 µg/mL)
Compound: CC[C@H](C)[C@H](NC(=O)[C@H](CCCNC(=N)N)NC(=O)[C@H](CCCNC(=N)N)NC(=O)[C@H](CCCNC(=N)N)NC(=O)[C@@H](NC(=O)[C@H](CCSC)NC(=O)[C@H](CC(=O)O)NC(=O)[C@H](C)NC(=O)[C@H](CCSC)NC(=O)[C@H](C)NC(=O)[C@@H](NC(=O)[C@H](CC(C)C)NC(=O)[C@H](CCCCN)NC(=O)[C@H](CO)NC(=O)[C@H](CCC(=O)O)NC(=O)[C@@H](N)CCCNC(=N)N)[C@@H](C)CC)[C@@H](C)CC)C(=O)O [PF-545] (H-RESKLIAMADMIRRRI-OH; N-terminus and C-terminus assumed)

Compound: CC[C@H](C)[C@H](NC(=O)[C@@H](NC(=O)[C@H](CO)NC(=O)CN)C(C)C)C(=O)N[C@@H](CCCCN)C(=O)N[C@@H](CCCCN)C(=O)N[C@@H](CCCNC(=N)N)C(=O)N[C@@H](CCCNC(=N)N)C(=O)N[C@@H](CCCCN)C(=O)N[C@@H](CCCNC(=N)N)C(=O)N[C@@H](CCSC)C(=O)N[C@@H](CO)C(=O)N[C@@H](CCCCN)C(=O)N[C@@H](CCCCN)C(=O)N[C@@H](CCCCN)C(=O)N[C@@H](Cc1c[nH]cn1)C(=O)N[C@@H](CCCNC(=N)N)C(=O)N[C@@H](CCCCN)C(=O)N[C@@H](CCSC)C(=O)N[C@@H](CC(C)C)C(=O)N[C@@H](CCCNC(=N)N)C(=O)N[C@@H](CCCNC(=N)N)C(=O)N[C@H](C(=O)N[C@@H](CCCNC(=N)N)C(=O)N[C@H](C(=O)N[C@@H](CCC(N)=O)C(=O)N[C@@H](CCCNC(=N)N)C(=O)N[C@@H](CCCNC(=N)N)C(=O)N[C@@H](CCCCN)C(=O)N[C@@H](CC(C)C)C(=O)NCC(=O)N[C@@H](CCCCN)C(=O)O)C(C)C)[C@@H](C)O [PF-S028]
- MIC (P. gingivalis): 25 µM (≈ 101 µg/mL)
- MIC (T. rubrum): 50 µM (≈ 202 µg/mL)
- MIC (S. mutans): 50 µM (≈ 202 µg/mL)
- MIC (S. epidermidis): 25 µM (≈ 101 µg/mL)
- MIC (P. aeruginosa): 50 µM (≈ 202 µg/mL)
- MIC (M. furfur): 2.5 µM (≈ 10.1 µg/mL)
